From patent publication US10758513B2, “Modulators of mitochondrial protein import” (THE REGENTS OF THE UNIVERSITY OF CALIFORNIA, priority 2011, dated 2020)

Assays:
[1] = system: mouse liver mitochondria; experiment: Import of radiolabeled precursors into isolated mouse liver mitochondria; type: biochemical; set-up: import of AAC: dose or concentration left out as unconfirmed
Procedure: Mitochondria were purified from yeast cells grown in YPEG or selective SEG medium as described in previous studies (Glick B S, Pon L A (1995). Methods Enzymol 260:213-223). Yeast cultures were kept at a constant 25° C. with vigorous shaking during growth. After concentration was measured by BCA assay, mitochondria were stored in 25 mg/ml aliquots at −80° C. Mammalian mitochondria were isolated from 2-4 freshly excised mouse livers by differential centrifugation. Briefly, isolated livers were washed 3× with cold PBS and then suspended in 4-5 mL isolation buffer (70 mM Sucrose, 220 mM mannitol, 2rnM HEPES-KOH, pH 7.4) per gram of tissue. Livers were first chopped into small pieces and then dounced 5× using a teflon dounce. Homogenized material was then centrifuged at 1,000 RPM for […] in a clinical centrifuge and supernatants were transferred to fresh tubes. Centrifugation at 1,000 RPM for 10 min was then repeated and supernatants were transferred to microfuge tubes. Next, supernatant material was spun for 10 min at 800×g (this process was repeated a second time). The supernatants from these steps were subjected to a high-speed (12,000×g for 20 min) spin to pellet heavy membrane fractions. Pellets were washed in isolation buffer and spun again (12,000×g for 20 min). After the final centrifugation step, supernatants were discarded and heavy membrane fraction was resuspended in mammalian import buffer (250 mM sucrose, 5 mM magnesium acetate, 80 mM potassium acetate, 10 mM sodium succinate, 1 mM dithiothreitol, 0.1 mM ADP, 20 mM Hepes-KOH, pH 7.4) as described in Johnston A J, et al. (2002), J Biol Chem 277:42197-42204 and kept on ice. All subsequent imports were performed within 1 hour of isolation of mammalian mitochondria. Mitochondrial concentrations were determined by BCA assay.
Prior to import into purified mitochondria, ^35S-methionine and cysteine labeled proteins were generated with TNT Quick Coupled Transcription/Translation kits (Promega) and plasmids carrying the gene of interest. Transcription of genes was driven by either a T7 or SP6 promoter. […]

[2] = system: tim12-1 mutant mitochondria; experiment: In vitro import of AAC into tim12-1 mutant mitochondria; type: biochemical, yeast
Procedure: Prior to import into purified mitochondria, ^35S-methionine and cysteine labeled proteins were generated with TNT Quick Coupled Transcription/Translation kits (Promega) and plasmids carrying the gene of interest. Transcription of genes was driven by either a T7 or SP6 promoter. Import reactions were conducted according to established methods. After frozen mitochondria aliquots were thawed and added to the import buffer at a final concentration of 100 μg/mL, drug or DMSO vehicle was added as indicated. A final vehicle concentration of 1% was used in all experiments. Following 15 minute incubation at 25° C., import reactions were initiated by the addition of […] of translation mix. Aliquots were removed at intervals during the reaction timecourse and import was terminated with either cold buffer, 25 μg/mL trypsin, or a combination of both. If trypsin was added to digest unimported precursor protein, soybean trypsin inhibitor (STI) was subsequently added in excess after 15 minute incubation on ice. After a final recovery of by centrifugation (8,000×g, 5 minutes), mitochondria were disrupted in Laemmli sample buffer. Imports of membrane proteins (AAC, PiC, Tom40, Tim22, and Tim23) included a carbonate extraction step to remove proteins that had not inserted into the membrane (Koehler C M, et al. (1998), Science 279:369-373). […]

[3] = system: tim10-1 tim9S mitochondria; experiment: Membrane potential with rhodamine 123; type: biochemical, yeast; conditions: 25 μM MitoBloCK-1; CCCP as control
Procedure: Membrane potential measurement assays were conducted with a SPEX spectrofluorometer system (HORIBA Jobin Yvon) with a magnetically stirred cuvette held at 25° C. The quenching of rhodamine 123 fluorescence (Em, =530 nm and Ex=485 nm) was used as previously described (9) to detect changes in mitochondrial membrane potential. Purified tim10-1 tim9S mitochondrial aliquots were thawed and resuspended in respiration buffer (0.65 M mannitol, 0.3 mM EGTA, 3 mm tris-phosphate, 10 mM tris-maleate, pH 6.75). Trials were started by adding 100 nM of rhodamine 123 to respiration buffer. After a period of signal stabilization, mitochondria were added to a concentration of 100 μg/mL. Either drug or DMSO was then added to a final vehicle concentration of 1% following the establishment of baseline quenched fluorescence. Finally, mitochondria were uncoupled with 3 μM CCCP.

[4] = target: T1, ALR (Homo sapiens, UniProt P55789); experiment: In vitro ALR activity, Amplex Red-HRP assay; type: biochemical
T1 construct: Recombinant long form ALR, residues 1 to 205, was purified under native conditions; made in house

[5] = system: HEK293 cells; experiment: Treatment of HEK293 cells with MitoBloCK-6; type: cell-based; conditions: unpublished data
Procedure: For microscopy experiments, HeLa or HEK293 cells were transiently transfected with Su9-EGFP (Lipofectamine, Invitrogen) at 80% confluency. 12 hours post transfection, cells were co-labeled with Mitotracker red CMXRos (Invitrogen) and visualized with a microscope (Axiovert 200M Carl Zeiss) using a Plan-Fluor 63× oil objective. Images were acquired at room temperature with a charge-coupled device camera (ORCA ER, Hamamatsu Photonics) controlled by Axiovision software (Carl Zeiss). Image files were processed by Photoshop software (Adobe). […] For cyt c release assays, a cell fractionation kit (MitoSciences) was used. Briefly, HeLa or HEK293 cells were grown in 10 cm^2 dishes to 80% confluency and then cells were treated with DMSO or MitoBloCK-6 in complete medium for 12-16 h. […] Cells were fractionated to obtain cytosolic and mitochondrial fractions; 100 μg of each fraction was analyzed by SDS-PAGE. Blots were probed with ApoTrack cyt c apoptosis antibody cocktail (MitoSciences).

[6] = system: HeLa cells; experiment: MTT cell viability assay in HeLa cells (MitoBloCK-6); type: cell-based; conditions: 100 μM
Procedure: Measurements for cell viability were made with a MTT based toxicology assay kit (Sigma) as described previously (Hasson et al., 2010). Briefly, HeLa cells were grown in 24-well tissue culture dishes to 80% confluency. Cells were then treated with DMSO or MitoBloCK-6 in complete medium for 12 h and reacted with MTT solution supplement for additional 4 hr as described in manufacturer's protocols. Percentage viability of each cell sample was calculated as: [(absorbance of vehicle treated cells)−(absorbance of MitoBloCK-6 treated cells)/(absorbance of vehicle treated cells)]×100.

T1 sequence (P55789 whole entry, the tested form may be a part): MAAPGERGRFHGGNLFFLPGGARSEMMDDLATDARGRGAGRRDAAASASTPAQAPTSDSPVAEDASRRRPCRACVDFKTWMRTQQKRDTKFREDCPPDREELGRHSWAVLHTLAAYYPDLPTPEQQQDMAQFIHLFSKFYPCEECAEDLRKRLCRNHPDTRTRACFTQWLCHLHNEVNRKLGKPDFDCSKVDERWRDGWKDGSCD

| SMILES | import of AAC [1] | import of Hsp60 [1] | import of Su9-DHFR [1] | import of AAC into tim12-1 mutant mitochondria [2] | rhodamine 123 fluorescence (membrane potential) [3] | IC50 [4] [nM] | morphology and viability in HEK293 cells [5] | cell viability (MTT) [6] |
| --- | --- | --- | --- | --- | --- | --- | --- | --- |
| NC(=S)N/N=C/c1c(O)c(Br)cc2oc3c(c12)CCCC3 [MitoBloCK-1] | inhibited | not altered | not altered | did not inhibit the import of AAC | did not change |  |  |  |
| Oc1c(Cl)cc(Cl)cc1/C=N/c1ccc(Nc2ccccc2)cc1 [MitoBloCK-6] |  |  |  |  |  | 700 | showed similar results | did not significantly reduce cell viability |
